# Tests used:
# Type in all cases: cell-based
# PfCRT^3D7 = PfCRT^3D7 (Plasmodium falciparum, UniProt Q8IBZ9); assay: cell-based; conditions: for PfCRT-mediated [3H]CQ transport, trans-stimulation (% PfCRT3D7 control): PfCRT3D7 oocytes, normalised to oocyte type control
# Procedure, shortened: (§1)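 Transport measured in Xenopus oocytes expressing the transporters, 1.5 h at 27.5 °C in ND96 pH 5.5 unless noted. For trans-stimulation, VF-6 injected in 25 nL ND96 at pH 5.0–7.0 or Na^+-free (choline) buffer; intracellular levels based on ~400 nL oocyte volume. Ten oocytes per treatment, ≥4 experiments.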
# PfCRT^Ecu1110 [1] = biological target: T1, PfCRT^Ecu1110 (Plasmodium falciparum, UniProt Q9N623, A220S/I356L/K76T/N326D); assay: cell-based; conditions: for PfCRT-mediated [3H]CQ transport, trans-stimulation (% PfCRTEcu1110 control): PfCRTEcu1110 oocytes, normalised to oocyte type control; for [3H]CQ transport (% PfCRTDd2 control), trans-stimulation, PfCRTEcu1110: PfCRT-mediated component (background subtracted), sheet title says normalised to PfCRTDd2 control, mean ± SEM, SEM
# T1 sequence (Q9N623 whole entry A220S/I356L/K76T/N326D): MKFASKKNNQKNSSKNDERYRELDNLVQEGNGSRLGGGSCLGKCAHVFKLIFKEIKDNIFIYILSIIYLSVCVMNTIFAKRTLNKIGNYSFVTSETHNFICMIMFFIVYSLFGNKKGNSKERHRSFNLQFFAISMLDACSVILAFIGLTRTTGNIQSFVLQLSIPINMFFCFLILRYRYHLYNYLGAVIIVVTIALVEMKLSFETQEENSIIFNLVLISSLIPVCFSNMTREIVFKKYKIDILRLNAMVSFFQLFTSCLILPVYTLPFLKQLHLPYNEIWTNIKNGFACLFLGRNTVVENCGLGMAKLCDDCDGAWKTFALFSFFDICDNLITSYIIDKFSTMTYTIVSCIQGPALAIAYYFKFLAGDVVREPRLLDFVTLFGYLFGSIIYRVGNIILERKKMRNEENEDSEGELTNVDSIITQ
# Procedure, shortened: as §1
# PfCRT^Dd2 [2] = biological target: T2, PfCRT^Dd2 (Plasmodium falciparum, UniProt Q9N623, A220S/I356T/K76T/M74I/N326S/N75E/Q271E/R371I); assay: cell-based; conditions: for PfCRT-mediated [3H]CQ transport, trans-stimulation (% PfCRTDd2 control): PfCRTDd2 oocytes, normalised to oocyte type control; for [3H]CQ transport (% PfCRTDd2 control), trans-stimulation, PfCRTDd2: PfCRT-mediated component (background subtracted), mean ± SEM, SEM
# T2 sequence (Q9N623 whole entry A220S/I356T/K76T/M74I/N326S/N75E/Q271E/R371I): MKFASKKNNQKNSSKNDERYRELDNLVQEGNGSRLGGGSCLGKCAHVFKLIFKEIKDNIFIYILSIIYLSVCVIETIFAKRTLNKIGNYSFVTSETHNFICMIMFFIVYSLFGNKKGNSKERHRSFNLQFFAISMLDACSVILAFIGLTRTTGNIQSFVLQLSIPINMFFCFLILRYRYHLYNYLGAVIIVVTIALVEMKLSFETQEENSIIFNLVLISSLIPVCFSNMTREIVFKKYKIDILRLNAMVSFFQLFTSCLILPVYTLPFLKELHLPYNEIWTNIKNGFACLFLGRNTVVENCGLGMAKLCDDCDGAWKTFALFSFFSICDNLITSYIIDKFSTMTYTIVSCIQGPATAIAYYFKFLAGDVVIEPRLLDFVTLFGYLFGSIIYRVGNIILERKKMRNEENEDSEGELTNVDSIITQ
# Procedure, shortened: as §1
# PfCRT^Ecu1110 [3] = biological target: T1, PfCRT^Ecu1110; assay: [3H]CQ uptake into Xenopus oocytes, cis-inhibition by unlabelled solute; conditions: for PfCRT-mediated [3H]CQ transport, cis-inhibition (% PfCRTEcu1110 control): PfCRTEcu1110 oocytes, background [3H]CQ accumulation subtracted, normalised to oocyte type control; for [3H]CQ transport (% PfCRTEcu1110 control), cis-inhibition, PfCRTEcu1110: PfCRT-mediated component (background subtracted), sheet title says normalised to PfCRTDd2 control, mean ± SEM, SEM
# Procedure, shortened: (§2)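 Oocytes expressing PfCRT isoforms, or non-expressing controls, were incubated 1.5 h at 27.5 °C in ND96 buffer pH 5.5 (96 mM NaCl, 2 mM KCl, 1 mM MgCl2, 1.8 mM CaCl2, 10 mM MES, 10 mM Tris-base), measuring uptake from acidic medium into cytosol. Oocytes were washed ice-cold, SDS-lysed and counted by scintillation.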
# PfCRT^Dd2 [4] = biological target: T2, PfCRT^Dd2; assay: as above; conditions: PfCRTDd2 oocytes, background [3H]CQ accumulation subtracted, normalised to oocyte type control
# Procedure, shortened: as §2
# [5] = [test solute]i = 5 mM (intracellular)
# [6] = [test solute]i = 45 mM (intracellular; 30 mM for some solutes due to solubility)
# [7] = [test solute]i = 5 mM (injected)
# [8] = [test solute]i = 45 mM (30 mM for some solutes due to solubility)
# PfCRT^3D7, sequence (Q8IBZ9 59-398): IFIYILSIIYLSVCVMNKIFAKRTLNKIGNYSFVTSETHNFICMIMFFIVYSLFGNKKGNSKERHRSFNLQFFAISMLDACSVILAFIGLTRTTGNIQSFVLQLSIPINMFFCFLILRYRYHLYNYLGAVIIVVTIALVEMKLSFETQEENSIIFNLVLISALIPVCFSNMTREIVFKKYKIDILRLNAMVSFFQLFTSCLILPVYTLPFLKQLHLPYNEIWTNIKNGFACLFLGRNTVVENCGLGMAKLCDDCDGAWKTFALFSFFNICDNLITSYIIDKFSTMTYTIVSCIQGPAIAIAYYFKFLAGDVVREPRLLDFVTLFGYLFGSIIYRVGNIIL
Substance,"PfCRT-mediated [3H]CQ transport, trans-stimulation (% PfCRT3D7 control) (PfCRT^3D7; [5])","PfCRT-mediated [3H]CQ transport, trans-stimulation (% PfCRT3D7 control) (PfCRT^3D7; [6])","PfCRT-mediated [3H]CQ transport, trans-stimulation (% PfCRTEcu1110 control) (PfCRT^Ecu1110 [1]; [5])","PfCRT-mediated [3H]CQ transport, trans-stimulation (% PfCRTEcu1110 control) (PfCRT^Ecu1110 [1]; [6])","[3H]CQ transport (% PfCRTDd2 control), trans-stimulation, PfCRTEcu1110 (PfCRT^Ecu1110 [1]; [7]) [% PfCRTEcu1110 control]","[3H]CQ transport (% PfCRTDd2 control), trans-stimulation, PfCRTEcu1110 (PfCRT^Ecu1110 [1]; [8]) [% PfCRTEcu1110 control]","PfCRT-mediated [3H]CQ transport, trans-stimulation (% PfCRTDd2 control) (PfCRT^Dd2 [2]; [5])","PfCRT-mediated [3H]CQ transport, trans-stimulation (% PfCRTDd2 control) (PfCRT^Dd2 [2]; [6])","[3H]CQ transport (% PfCRTDd2 control), trans-stimulation, PfCRTDd2 (PfCRT^Dd2 [2]; [7]) [% PfCRTDd2 control]","[3H]CQ transport (% PfCRTDd2 control), trans-stimulation, PfCRTDd2 (PfCRT^Dd2 [2]; [8]) [% PfCRTDd2 control]","PfCRT-mediated [3H]CQ transport, cis-inhibition (% PfCRTEcu1110 control) (PfCRT^Ecu1110 [3]; [test solute] = 0.5 mM)","PfCRT-mediated [3H]CQ transport, cis-inhibition (% PfCRTEcu1110 control) (PfCRT^Ecu1110 [3]; [test solute] = 2 mM)","[3H]CQ transport (% PfCRTEcu1110 control), cis-inhibition, PfCRTEcu1110 (PfCRT^Ecu1110 [3]; [test solute] = 1 mM) [% PfCRTEcu1110 control]","[3H]CQ transport (% PfCRTEcu1110 control), cis-inhibition, PfCRTEcu1110 (PfCRT^Ecu1110 [3]; [test solute] = 2 mM) [% PfCRTEcu1110 control]","PfCRT-mediated [3H]CQ transport, cis-inhibition (% PfCRTDd2 control) (PfCRT^Dd2 [4]; [test solute] = 0.5 mM)","PfCRT-mediated [3H]CQ transport, cis-inhibition (% PfCRTDd2 control) (PfCRT^Dd2 [4]; [test solute] = 1 mM)","PfCRT-mediated [3H]CQ transport, cis-inhibition (% PfCRTDd2 control) (PfCRT^Dd2 [4]; [test solute] = 2 mM)","[3H]CQ transport (% PfCRT3D7 control), trans-stimulation, PfCRT3D7 (PfCRT^3D7; SEM)","PfCRT-mediated [3H]CQ transport, cis-inhibition (% PfCRTEcu1110 control) (PfCRT^Ecu1110 [3]; [test solute] = 1 mM)","[3H]CQ transport (% PfCRTEcu1110 control), cis-inhibition, PfCRTEcu1110 (PfCRT^Ecu1110 [3]; [test solute] = 0.5 mM) [% PfCRTEcu1110 control]"
HFDLS [HS-5],139 ± 4.1,166 ± 3.2,120 ± 2.1,131 ± 1.8,36 ± 1.3,40 ± 1.4,100 ± 3.2,112 ± 1.1,100 ± 3.2,112 ± 1.1,20 ± 1.3,4.3 ± 0.1,3.0 ± 0.04,1.0 ± 0.06,20 ± 0.1,9 ± 0.2,3.2 ± 0.1,,,
AEALERMF [AF-8],97 ± 3.2,97 ± 3.5,96 ± 3.1,98 ± 4.1,29 ± 1.0,30 ± 1.9,97 ± 2.8,96 ± 4.3,97 ± 2.8,96 ± 4.3,52 ± 2.9,32 ± 1.1,,10 ± 0.06,61 ± 1.3,52 ± 2.6,19 ± 0.1,0.1 ± 0.03,41 ± 2.1,
TPPVQ [TQ-5],94 ± 3.5,96 ± 4.2,96 ± 3.5,96 ± 2.3,29 ± 1.6,30 ± 1.6,96 ± 3.2,97 ± 4.5,96 ± 3.2,97 ± 4.5,56 ± 3.1,42 ± 2.4,15 ± 0.1,13 ± 0.1,50 ± 2.1,30 ± 2.1,15 ± 0.3,,49 ± 2.6,
LDNLK [LK-5],127 ± 4.2,180 ± 7.2,97 ± 4.2,136 ± 5.1,29 ± 1.4,41 ± 2.1,100 ± 1.3,94 ± 3.2,100 ± 1.3,94 ± 3.2,40 ± 1.4,21 ± 1.9,9.0 ± 0.03,7.0 ± 0.03,31 ± 1.4,21 ± 1.9,13 ± 0.7,,30 ± 1.9,13 ± 0.1

# Source: publication PMC7413254 (Nature Communications, 2020)
